29 compounds from US7863271B2, “2-aminobenzoxazole carboxamides as 5HT3 modulators” (Albany Molecular Research, Inc., priority 2006, dated 2011) can be followed below.

Usually Ki stands for the dissociation constant of the complex between target and ligand, obtained from inhibition or displacement.

Structures are written as SMILES. Where a name gives a salt, the structure may show the parent alone.

This assay addresses T1, 5-HT3 (Homo sapiens, UniProt P46098).
T1 sequence (P46098 24-478): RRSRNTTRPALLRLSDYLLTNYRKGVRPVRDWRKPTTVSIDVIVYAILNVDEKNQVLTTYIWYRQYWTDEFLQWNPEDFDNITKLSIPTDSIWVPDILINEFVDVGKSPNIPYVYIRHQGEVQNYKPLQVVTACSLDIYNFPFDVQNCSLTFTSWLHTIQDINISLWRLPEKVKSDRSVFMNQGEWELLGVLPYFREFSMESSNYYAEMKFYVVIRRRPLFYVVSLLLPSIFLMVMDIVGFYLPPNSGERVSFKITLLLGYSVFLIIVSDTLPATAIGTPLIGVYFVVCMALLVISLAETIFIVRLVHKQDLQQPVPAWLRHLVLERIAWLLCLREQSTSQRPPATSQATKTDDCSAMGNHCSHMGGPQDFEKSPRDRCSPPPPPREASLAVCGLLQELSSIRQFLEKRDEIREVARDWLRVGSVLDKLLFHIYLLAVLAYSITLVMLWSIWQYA
The assay is described as follows: Compound affinity for the human 5-HT3 receptor (Assay B), SPA radioligand binding with [9-methyl-3H]BRL-43694. Also noted: purchased Perkin Elmer. The settings on record: Assay B (method B unless otherwise annotated); read-out: 5-HT3 Ki. An outline of the steps:
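Ten competitor concentrations in duplicate; specific binding (total minus nonspecific) fitted for IC50, converted to Ki by Cheng-Prusoff.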
Turning to `CN1[C@@H]2CCC[C@H]1C[C@@H](NC(=O)c1cccc3oc(N4CCNCC4)nc13)C2` [Example 21, Endo-N-(9-Methyl-9-azabicyclo[3.3.1]non-3-yl)-2-(piperazin-1-yl)benzoxazole-4-carboxamide Dihydrochloride], the Ki came out at 74.6 nM. For the compound `CN1CC2CC(NC(=O)c3cccc4oc(N5CCOCC5)nc34)CC(C1)N2C` (stereo not drawn) [Example 43, Exo-N-(3,9-Dimethyl-3,9-diazabicyclo[3.3.1]nonan-7-yl)-2-morpholinobenzoxazole-4-carboxamide Hydrochloride], the Ki was 480 nM. In the case of `C[C@H]1CNC[C@H](C)N1c1nc2c(C(=O)NC3CC4CCCC(C3)N4C)cc(Cl)cc2o1` (stereo partly drawn) [Example 114, Endo-N-(9-methyl-9-azabicyclo[3.3.1]nonan-3-yl)-6-chloro-2-((2S,6S)-2,6-dimethylpiperazin-1-yl)benzoxazole-4-carboxamide Hydrochloride], the Ki is 6.6 nM. Then `CN1C[C@H]2C[C@@H](NC(=O)c3cccc4oc(Nc5ccccc5)nc34)C[C@@H](C1)N2C` [Example 51, Endo-N-(3,9-Dimethyl-3,9-diazabicyclo[3.3.1]nonan-7-yl)-2-(phenylamino)benzoxazole-4-carboxamide Hydrochloride], with 212 nM; and `CC(C)[C@H]1CNCCN1c1nc2c(C(=O)NC3CC4CCCC(C3)N4C)cccc2o1` (stereo partly drawn) [Example 76, Endo-N-(9-Methyl-9-azabicyclo[3.3.1]nonan-3-yl)-2-((S)-2-isopropylpiperazin-1-yl)benzoxazole-4-carboxamide Hydrochloride], with 9.8 nM. The result for `CN1[C@@H]2CCC[C@H]1C[C@@H](NC(=O)c1cccc3oc(=S)[nH]c13)C2` [Example 72, Endo N-(9-methyl-9-azabicyclo[3.3.1]nonan-3-yl)-2-thioxo-2,3-dihydrobenzoxazole-4-carboxamide Hydrochloride] reads 30.8 nM; that for `C[C@@H]1CNCCN1c1nc2c(C(=O)N[C@H]3C[C@H]4CCC[C@@H](C3)N4C)cccc2o1` [Example 41b, Endo-N-(9-Methyl-9-azabicyclo[3.3.1]nonan-3-yl)-2-[(R)-2-methylpiperazin-1-yl]benzoxazole-4-carboxamide Hydrochloride], 125 nM. Consider `C[C@H]1CN(C(=O)N2CCCC2)C[C@H](C)N1c1nc2c(C(=O)NC3CC4CCCC(C3)N4C)cccc2o1` (stereo partly drawn) [Example 140, Endo-N-(9-methyl-9-azabicyclo[3.3.1]nonan-3-yl)-2-((2S,6S)-2,6-dimethyl-4-(pyrrolidine-1-carbonyl)piperazin-1-yl)benzoxazole-4-carboxamide hydrochloride], for which the Ki was found to be 2.2 nM. `CN1C2CCCC1CC(NC(=O)c1cccc3oc(N4CCN[C@H]5CCCC[C@@H]54)nc13)C2` (stereo partly drawn) [Example 126, Endo-N-(9-Methyl-9-azabicyclo[3.3.1]nonan-3-yl)-2-((4aS,8aS)-octahydroquinoxalin-1(2H)-yl)benzoxazole-4-carboxamide Dihydrochloride]: the Ki was determined as 16.5 nM.

In the case of `CN1C2CCCC1CC(NC(=O)c1cccc3oc(NC4CC5CCCC(C4)N5C)nc13)C2` (stereo not drawn) [Example 37, Endo-N-(9-Methyl-9-azabicyclo[3.3.1]nonan-3-yl)-2-(9-Methyl-9-azabicyclo[3.3.1]non-3-ylamino)benzoxazole-4-carboxamide Trihydrochloride], the Ki is 243 nM. In the case of `O=C(N[C@@H]1CN2CCC1CC2)c1cccc2oc(N3CCNCC3)nc12` [Example 22, (S)—N-(quinuclidine-8-yl)-2-(piperazin-1-yl)benzoxazole-4-carboxamide Dihydrochloride], the Ki turned out to be 321 nM. The result for `C[C@H]1CNC[C@H](C)N1c1nc2c(C(=O)NC3CN4CCC3CC4)cccc2o1` (some centres unmarked) [Example 99, Hydrochloride] reads 13.2 nM; that for `CN1CCN(c2nc3c(C(=O)NC4CN5CCC4CC5)cccc3o2)C(c2ccccc2)C1` (racemic) [Example 24, (S)—N-(quinuclidine-8-yl)-2-(4-methyl-2-phenylpiperazin-1-yl)benzoxazole-4-carboxamide Dihydrochloride], 103 nM. In the case of `O=C(N[C@@H]1CN2CCC1CC2)c1cccc2oc(Nc3ccccc3)nc12` [Example 6, (S)—N-(quinuclidine-8-yl)-2-(phenylamino) benzoxazole-4-carboxamide Hydrochloride], the Ki came out at 8.1 nM. With `C[C@H]1CN(Cc2ccccc2)C[C@H](C)N1c1nc2c(C(=O)NC3CC4CCCC(C3)N4C)cccc2o1` (stereo partly drawn) [Example 148, Endo-N-(9-methyl-9-azabicyclo[3.3.1]nonan-3-yl)-2-((2S,6S)-4-benzyl-2,6-dimethylpiperazin-1-yl)benzoxazole-4-carboxamide Hydrochloride], the inhibition constant Ki was determined as 1.6 nM. Then `C[C@H]1CNCCN1c1nc2c(C(=O)N[C@H]3C[C@H]4CCC[C@@H](C3)N4C)cccc2o1` [Example 41a, Endo-N-(9-Methyl-9-azabicyclo[3.3.1]nonan-3-yl)-2-[(S)-2-methylpiperazin-1-yl]benzoxazole-4-carboxamide Hydrochloride], with 14.2 nM; and `C[C@@H]1CN(c2nc3c(C(=O)NC4CC5CCCC(C4)N5C)cccc3o2)[C@@H](C)CN1` (relative stereo) [Example 60, Endo N-(9-Methyl-9-azabicyclo[3.3.1]nonan-3-yl)-2-((2S*,5R*)-2,5-dimethylpiperazin-1-yl)benzoxazole-4-carboxamide Hydrochloride], with 10.5 nM. Consider `Nc1nc2c(C(=O)NC3CN4CCC3CC4)c(F)ccc2o1` [Example 139, (S)—N-(quinulidin-8-yl)-2-amino-5-fluorobenzoxazole-4-carboxamide Hydrochloride], for which the Ki turned out to be 67.4 nM.

As to `C[C@H]1CN(CC2CC2)C[C@H](C)N1c1nc2c(C(=O)NC3CC4CCCC(C3)N4C)cccc2o1` (stereo partly drawn) [Example 119, Endo-N-(9-methyl-9-azabicyclo[3.3.1]nonan-3-yl)-2-((2S,6S)-4-(cyclopropylmethyl)-2,6-dimethylpiperazin-1-yl)benzoxazole-4-carboxamide Hydrochloride], the Ki worked out at 6.6 nM.

For the compound `CN1[C@@H]2CCC[C@H]1C[C@@H](NC(=O)c1cc(Cl)cc3oc(N)nc13)C2` [Example 111, Endo-2-amino-6-chloro-N-(9-Methyl-9-azabicyclo[3.3.1]nonan-3-yl)benzoxazole-4-carboxamide Hydrochloride], the Ki amounted to 2 nM. In the case of `C[C@H]1COC[C@H](C)N1c1nc2c(C(=O)NC3CC4CCCC(C3)N4)cccc2o1` (stereo partly drawn) [Example 81, Endo-N-(9-Azabicyclo[3.3.1]nonan-3-yl)-2-((3S,5S)-3,5-dimethylmorpholino)benzoxazole-4-carboxamide Hydrochloride], the Ki was 16.8 nM. With `C[C@H]1CN(Cc2ccccc2)C(=O)[C@H](C)N1c1nc2c(C(=O)NC3CC4CCCC(C3)N4C)cccc2o1` (stereo partly drawn) [Example 97, Endo-N-(9-Methyl-9-azabicyclo[3.3.1]nonan-3-yl)-2-((2S,6S)-4-benzyl-2,6-dimethyl-3-oxopiperazine-1-yl)benzoxazole-4-carboxamide Hydrochloride], the Ki worked out at 0.4 nM.

With `CN1CCCN(c2nc3c(C(=O)N[C@H]4C[C@H]5CCC[C@@H](C4)N5C)cccc3o2)CC1` [Example 11, Endo-N-(9-Methyl-9-azabicyclo[3.3.1]non-3-yl)-2-(4-methyl-1,4-diazepam-1-yl)benzoxazole-4-carboxamide Dihydrochloride], the Ki was 89.6 nM. As to `CC1CNCCN1c1nc2c(C(=O)N[C@H]3C[C@H]4CCC[C@@H](C3)N4C)cccc2o1` (stereo partly drawn) [Example 25, Endo-N-(9-Methyl-9-azabicyclo[3.3.1]non-3-yl)-2-(2-methylpiperazin-1-yl)benzoxazole-4-carboxamide Dihydrochloride], the Ki came out at 27.5 nM.

In the case of `CC(C)N(C)c1nc2c(C(=O)N[C@@H]3CN4CCC3CC4)cccc2o1` [Example 85, (S)—N-(quinuclidine-8-yl)-2-(isopropyl(methyl)amino)benzoxazole-4-carboxamide Hydrochloride], the Ki was 28.9 nM.

On to `CN1[C@@H]2CCC[C@H]1C[C@@H](NC(=O)c1cccc3oc(NCCN4CCOCC4)nc13)C2` [Example 33, Endo-N-(9-Methyl-9-azabicyclo[3.3.1]nonan-3-yl)-2-(2-morpholinoethylamino)benzoxazole-4-carboxamide Trihydrochloride], for which the inhibitory constant (Ki) came to 168 nM. In the case of `CNc1nc2c(C(=O)N[C@H]3C[C@H]4CCC[C@@H](C3)N4C)cccc2o1` [Example 34, Endo-N-(9-Methyl-9-azabicyclo[3.3.1]non-3-yl)-2-(methylamino)benzoxazole-4-carboxamide Hydrochloride], the Ki was determined as 5.3 nM. Consider `CN1[C@@H]2CCC[C@H]1C[C@@H](NC(=O)c1cccc3oc(N4CCS(=O)(=O)CC4)nc13)C2` [Example 82, Endo-N-(9-Methyl-9-azabicyclo[3.3.1]nonan-3-yl)-2-(thiomorpholine 1,1-dioxide)benzoxazole-4-carboxamide Hydrochloride], for which the Ki stood at 132 nM. Consider `CCC(=O)N1C[C@H](C)N(c2nc3c(C(=O)NC4CC5CCCC(C4)N5C)cccc3o2)[C@@H](C)C1` (stereo partly drawn) [Example 134, Endo-N-(9-methyl-9-azabicyclo[3.3.1]nonan-3-yl)-2-((2S,6S)-2,6-dimethyl-4-propionylpiperazin-1-yl)benzoxazole-4-carboxamide Hydrochloride], for which the Ki amounted to 1.7 nM.
